Among the data in patent US8044079B2, “Substituted oxindole derivatives, medicaments containing said derivatives and use thereof” (Abbott GmbH & Co. KG, priority 2005, dated 2011) are Ki values, retold here.

The assay concerns the target T1, human vasopressin V1b receptor (Homo sapiens, UniProt P47901).
T1 construct: expressed in transfected cells; host or cells: CHO-K1 (cell line hV1b_3H2_CHO), membrane preparation
T1 sequence (P47901 1-424): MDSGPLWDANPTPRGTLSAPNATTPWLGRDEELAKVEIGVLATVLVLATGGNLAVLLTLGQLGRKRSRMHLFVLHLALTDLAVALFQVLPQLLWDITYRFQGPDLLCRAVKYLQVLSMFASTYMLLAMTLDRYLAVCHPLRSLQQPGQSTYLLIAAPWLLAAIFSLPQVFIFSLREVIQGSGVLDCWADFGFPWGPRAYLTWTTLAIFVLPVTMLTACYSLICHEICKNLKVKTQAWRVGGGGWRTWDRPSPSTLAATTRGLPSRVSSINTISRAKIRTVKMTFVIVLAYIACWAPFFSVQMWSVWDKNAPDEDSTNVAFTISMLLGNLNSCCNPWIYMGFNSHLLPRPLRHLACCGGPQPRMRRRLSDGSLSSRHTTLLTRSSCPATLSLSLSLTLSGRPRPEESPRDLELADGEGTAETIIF
Kind of assay: Vasopressin V1b receptor binding test. To be noted: membranes of CHO-K1 cells with human V1b receptor, displacement of 1.5 nM 3H-AVP; for compounds with more than one stereogenic center the diastereomer with greater affinity. In short, it runs like this:
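Radioligand displacement on membranes carrying human V1b receptor in 50 mM tris, 10 mM MgCl2, 0.1% BSA, pH 7.4, 2% DMSO final; 60 min at room temperature, nonspecific binding with 1 μM AVP. Free ligand removed by filtration, bound counted by liquid scintillation, Ki from nonlinear regression of triplicates.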

SMILES strings stand for the structures.

As for `COc1ccc(S(=O)(=O)N2C(=O)C(c3cc(CN4CCCC4)ccc3OC)(N3CCC[C@H]3c3ncco3)c3cc(Cl)ccc32)cc1` (stereo partly drawn) [Example 13, 5-Chloro-1-(4-methoxybenzenesulfonyl)-3-(2-methoxy-5-pyrrolidin-1-ylmethylphenyl)-3-((S)-2-oxazol-2-yl-pyrrolidin-1-yl)-1,3-dihydroindol-2-one], the Ki is less than 10 nM.
For `CCCNCc1ccc(OC)c(C2(N3CCCC3c3nccs3)C(=O)N(S(=O)(=O)c3ccc(OC)cc3)c3ccc(Cl)cc32)c1` (stereo not shown) [Example 132, 5-Chloro-1-(4-methoxybenzenesulfonyl)-3-(2-methoxy-5-propylaminomethylphenyl)-3-(2-thiazol-2-yl-pyrrolidin-1-yl)-1,3-dihydroindol-2-one] the value was 10 to 100 nM; for `COc1ccc(S(=O)(=O)N2C(=O)C(c3cc(CN4CCOCC4)ccc3OC)(N3C[C@H](O)C[C@H]3c3ncco3)c3cc(C#N)ccc32)cc1` (stereo partly drawn) [Example 220, 5-Cyano-3-((2S,4R)-4-hydroxy-2-oxazol-2-yl-pyrrolidin-1-yl)-1-(4-methoxybenzenesulfonyl)-3-(2-methoxy-5-morpholin-4-ylmethylphenyl)-1,3-dihydroindol-2-one], 10 to 100 nM.
In the case of `COc1cc(CN2CCCC2)ccc1C1(N2C[C@H](O)C[C@H]2c2ncco2)C(=O)N(S(=O)(=O)c2ccc(C#N)cc2)c2ccc(Cl)cc21` (stereo partly drawn) [Example 183, 5-Chloro-3-((2S,4R)-4-hydroxy-2-oxazol-2-yl-pyrrolidin-1-yl)-3-(2-methoxy-4-(pyrrolidin-1-ylmethyl)phenyl)-1-(4-cyanobenzenesulfonyl)-1,3-dihydroindol-2-one], the Ki is 10 to 100 nM.
`COCCN(C)Cc1ccc(OC)c(C2(N3CCC[C@H]3c3ncco3)C(=O)N(S(=O)(=O)c3ccc(OC)cc3)c3ccc(C#N)cc32)c1` (stereo partly drawn) [Example 55, 5-Cyano-1-(4-methoxybenzenesulfonyl)-3-(2-methoxy-5-{[(2-methoxyethyl)methylamino]methyl}phenyl)-3-((S)-2-oxazol-2-yl-pyrrolidin-1-yl)-1,3-dihydroindol-2-one] displayed a Ki of 10 to 100 nM.
Turning to `COc1ccc(S(=O)(=O)N2C(=O)C(c3cc(CN4CCN(C)CC4)ccc3OC)(N3C[C@H](O)C[C@H]3c3ncco3)c3cc(Cl)ccc32)cc1` (stereo partly drawn) [Example 103, 5-Chloro-3-((2S,4R)-4-hydroxy-2-oxazol-2-yl-pyrrolidin-1-yl)-1-(4-methoxybenzenesulfonyl)-3-[2-methoxy-5-(4-methylpiperazin-1-ylmethyl)phenyl]-1,3-dihydroindol-2-one], the inhibition constant (Ki) is less than 10 nM.
For `COc1cc(CN2CCN(C)CC2)ccc1C1(N2C[C@H](O)C[C@H]2c2ncco2)C(=O)N(S(=O)(=O)c2ccc(C#N)cc2)c2ccc(Cl)cc21` (stereo partly drawn) [Example 180, 5-Chloro-3-((2S,4R)-4-hydroxy-2-oxazol-2-yl-pyrrolidin-1-yl)-3-[2-methoxy-4-(4-methylpiperazin-1-ylmethyl)phenyl]-1-(4-cyanobenzenesulfonyl)-1,3-dihydroindol-2-one] the value was less than 10 nM; for `COc1ccc(S(=O)(=O)N2C(=O)C(c3cc(CN(C)C)ccc3OC)(N3C[C@H](O)C[C@H]3c3ncco3)c3cc(C#N)ccc32)cc1` (stereo partly drawn) [Example 150, 5-Cyano-3-(5-dimethylaminomethyl-2-methoxyphenyl)-3-((2S,4R)-4-hydroxy-2-oxazol-2-yl-pyrrolidin-1-yl)-1-(4-methoxybenzenesulfonyl)-1,3-dihydroindol-2-one], less than 10 nM; for `COc1ccc(S(=O)(=O)N2C(=O)C(c3ccc(CN4CCN(C)CC4)cc3OC)(N3C[C@H](O)C[C@H]3c3ncco3)c3cc(Cl)ccc32)cc1` (stereo partly drawn) [Example 165, 5-Chloro-3-((2S,4R)-4-hydroxy-2-oxazol-2-yl-pyrrolidin-1-yl)-1-(4-methoxybenzenesulfonyl)-3-[2-methoxy-4-(4-methylpiperazin-1-ylmethyl)phenyl]-1,3-dihydroindol-2-one], less than 10 nM.
For `CNCc1ccc(OC)c(C2(N3CCCC3c3nccs3)C(=O)N(S(=O)(=O)c3ccc(OC)cc3)c3ccc(Cl)cc32)c1` (stereo not shown) [Example 155, 5-Chloro-1-(4-methoxybenzenesulfonyl)-3-(2-methoxy-5-methylaminomethylphenyl)-3-(2-thiazol-2-yl-pyrrolidin-1-yl)-1,3-dihydroindol-2-one] the value was less than 10 nM.
For `COc1ccc(S(=O)(=O)N2C(=O)C(c3cc(CN(C)C(C)C)ccc3OC)(N3CCC[C@H]3c3ncco3)c3ccc(Cl)cc32)cc1` (stereo partly drawn) [Example 33, 6-Chloro-3-{5-[(isopropylmethylamino)methyl]-2-methoxyphenyl}-1-(4-methoxybenzenesulfonyl)-3-((S)-2-oxazol-2-yl-pyrrolidin-1-yl)-1,3-dihydroindol-2-one] the value was 100 to 1000 nM; for `COc1ccc(S(=O)(=O)N2C(=O)C(c3cc(CN4CCNC(=O)C4)ccc3OC)(N3CCC[C@H]3c3ncco3)c3cc(Cl)ccc32)cc1` (stereo partly drawn) [Example 125, 5-Chloro-1-(4-methoxybenzenesulfonyl)-3-[2-methoxy-5-(3-oxopiperazin-1-ylmethyl)phenyl]-3-((S)-2-oxazol-2-yl-pyrrolidin-1-yl)-1,3-dihydroindol-2-one], 10 to 100 nM.
In turn, `COc1ccc(S(=O)(=O)N2C(=O)C(c3cc(CN4CCC(O)CC4)ccc3OC)(N3CCC[C@H]3c3ncco3)c3cc(C#N)ccc32)cc1` (stereo partly drawn) [Example 191, 5-Cyano-3-[5-(4-hydroxypiperidin-1-ylmethyl)-2-methoxyphenyl]-1-(4-methoxybenzenesulfonyl)-3-((S)-2-oxazol-2-yl-pyrrolidin-1-yl)-1,3-dihydroindol-2-one] gave a Ki of less than 10 nM.
For `COc1ccc(S(=O)(=O)N2C(=O)C(c3cccc(CN4CCCC4)c3OC)(N3CCC[C@H]3c3ncco3)c3cc(Cl)ccc32)cc1` (stereo partly drawn) [Example 195, 5-Chloro-1-(4-methoxybenzenesulfonyl)-3-(2-methoxy-3-pyrrolidin-1-ylmethylphenyl)-3-((S)-2-oxazol-2-yl-pyrrolidin-1-yl)-1,3-dihydroindol-2-one] the value was 100 to 1000 nM; for `COc1cc(CN(C)C)ccc1C1(N2C[C@H](O)C[C@H]2c2ncco2)C(=O)N(S(=O)(=O)c2ccc(C#N)cc2)c2ccc(Cl)cc21` (stereo partly drawn) [Example 182, 5-Chloro-3-(4-dimethylaminomethyl-2-methoxyphenyl)-3-((2S,4R)-4-hydroxy-2-oxazol-2-yl-pyrrolidin-1-yl)-1-(4-cyanobenzenesulfonyl)-1,3-dihydroindol-2-one], 10 to 100 nM; for `COc1ccc(S(=O)(=O)N2C(=O)C(c3cc(CNC(C)(C)C)ccc3OC)(N3CCC[C@H]3c3ncco3)c3cc(Cl)c(Cl)cc32)cc1` (stereo partly drawn) [Example 106, 5,6-Dichloro-3-[5-(tert-butylaminomethyl)-2-methoxyphenyl]-1-(4-methoxybenzenesulfonyl)-3-((S)-2-oxazol-2-yl-pyrrolidin-1-yl)-1,3-dihydroindol-2-one], 10 to 100 nM.
For `COc1ccc(S(=O)(=O)N2C(=O)C(c3cc(CN4CCN(C(C)=O)CC4)ccc3OC)(N3CCC[C@H]3c3ncco3)c3cc(C#N)ccc32)cc1` (stereo partly drawn) [Example 95, 5-Cyano-3-[5-(4-acetylpiperazin-1-ylmethyl)-2-methoxyphenyl]-1-(4-methoxybenzenesulfonyl)-3-((S)-2-oxazol-2-yl-pyrrolidin-1-yl)-1,3-dihydroindol-2-one] the value was 10 to 100 nM; for `CCN1CCN(Cc2ccc(C3(N4CCC[C@H]4c4ncco4)C(=O)N(S(=O)(=O)c4ccc(OC)cc4)c4ccc(Cl)c(F)c43)c(OC)c2)CC1` (stereo partly drawn) [Example 199, 5-Chloro-3-[4-(4-ethylpiperazin-1-ylmethyl)-2-methoxyphenyl]-4-fluoro-1-(4-methoxybenzenesulfonyl)-3-((S)-2-oxazol-2-yl-pyrrolidin-1-yl)-1,3-dihydroindol-2-one], less than 10 nM; for `CCCNCc1ccc(C2(N3CCC[C@H]3c3ncco3)C(=O)N(S(=O)(=O)c3ccc(OC)cc3)c3ccc(Cl)cc32)c(OC)c1` (stereo partly drawn) [Example 20, 5-Chloro-1-(4-methoxybenzenesulfonyl)-3-(2-methoxy-4-propylaminomethylphenyl)-3-((S)-2-oxazol-2-yl-pyrrolidin-1-yl)-1,3-dihydroindol-2-one], less than 10 nM.
With `COc1ccc(S(=O)(=O)N2C(=O)C(c3cc(CN4CCCCC4)ccc3OC)(N3CCC[C@H]3c3ncco3)c3cc(C#N)ccc32)cc1` (stereo partly drawn) [Example 61, 5-Cyano-1-(4-methoxybenzenesulfonyl)-3-(2-methoxy-5-piperidin-1-ylmethylphenyl)-3-((S)-2-oxazol-2-yl-pyrrolidin-1-yl)-1,3-dihydroindol-2-one], the Ki lay in the range of 10 to 100 nM.
For `COc1ccc(S(=O)(=O)N2C(=O)C(c3cc(CN4CCN(CCO)CC4)ccc3OC)(N3CCC[C@H]3c3ncc(C)o3)c3cc(Cl)ccc32)cc1` (stereo partly drawn) [Example 233, 5-Chloro-3-{5-[4-(2-hydroxyethyl)piperazin-1-ylmethyl]-2-methoxyphenyl}-1-(4-methoxybenzenesulfonyl)-3-[(S)-2-(5-methyloxazol-2-yl)-pyrrolidin-1-yl]-1,3-dihydroindol-2-one], the Ki lay within 10 to 100 nM.
`CNCc1ccc(OC)c(C2(N3CCC[C@@]3(C)c3ncco3)C(=O)N(S(=O)(=O)c3ccc(OC)cc3)c3ccc(Cl)cc32)c1` (stereo partly drawn) [Example 227, 5-Chloro-1-(4-methoxybenzenesulfonyl)-3-(2-methoxy-5-methylaminomethylphenyl)-3-((S)-2-methyl-2-oxazol-2-yl-pyrrolidin-1-yl)-1,3-dihydroindol-2-one] gave an inhibition constant (Ki) of less than 10 nM.
